The NIST ThermoML archive (doi:10.1021/acs.jced.5b00549)

Assay: mn = molality of the nth substance listed, in mol/kg
Conditions: 100 kPa, Liquid; for viscosity: Capillary tube (Ostwald / Ubbelohde) method; for speed of sound: Frequency=3 MHz, Sing-around technique in a fixed-path interferometer; for mass density: Vibrating tube method

NC(=O)CC[C@H](N)C(=O)O [L-glutamine] + O
Conditions | mass density [kg/m3] | speed of sound [m/s] | viscosity [mPa·s]
293.15 K, m1 = 0.02 | 999.262 | 1484 | 1.012
293.15 K, m1 = 0.04 | 1000.32 | 1485.3 | 1.017
293.15 K, m1 = 0.06 | 1001.38 | 1486.9 | 1.022
293.15 K, m1 = 0.08 | 1002.44 | 1488.4 | 1.027
293.15 K, m1 = 0.1 | 1003.5 | 1490.1 | 1.031
293.15 K, m1 = 0.12 | 1004.57 | 1491.8 | 1.035
293.15 K, m1 = 0.14 | 1005.63 | 1493.5 | 1.039
293.15 K, m1 = 0.16 | 1006.69 | 1495.3 | 1.043
293.15 K, m1 = 0.18 | 1007.76 | 1497.2 | 1.047
293.15 K, m1 = 0.2 | 1008.82 | 1499 | 1.051
298.15 K, m1 = 0.02 | 998.094 | 1498 | 0.8984
298.15 K, m1 = 0.04 | 999.147 | 1499.3 | 0.9028
298.15 K, m1 = 0.06 | 1000.2 | 1500.8 | 0.9067
298.15 K, m1 = 0.08 | 1001.26 | 1502.3 | 0.9104
298.15 K, m1 = 0.1 | 1002.32 | 1503.9 | 0.9143
298.15 K, m1 = 0.12 | 1003.37 | 1505.6 | 0.9175
298.15 K, m1 = 0.14 | 1004.43 | 1507.3 | 0.9212
298.15 K, m1 = 0.16 | 1005.49 | 1509 | 0.9246
298.15 K, m1 = 0.18 | 1006.56 | 1510.7 | 0.9277
298.15 K, m1 = 0.2 | 1007.62 | 1512.6 | 0.9308
303.15 K, m1 = 0.02 | 996.679 | 1510.3 | 0.8039
303.15 K, m1 = 0.04 | 997.722 | 1511.6 | 0.8076
303.15 K, m1 = 0.06 | 998.771 | 1513 | 0.8109
303.15 K, m1 = 0.08 | 999.819 | 1514.5 | 0.8141
303.15 K, m1 = 0.1 | 1000.87 | 1516 | 0.817
303.15 K, m1 = 0.12 | 1001.92 | 1517.7 | 0.82
303.15 K, m1 = 0.14 | 1002.97 | 1519.4 | 0.8224
303.15 K, m1 = 0.16 | 1004.02 | 1521 | 0.8254
303.15 K, m1 = 0.18 | 1005.09 | 1522.7 | 0.8283
303.15 K, m1 = 0.2 | 1006.14 | 1524.5 | 0.8316
308.15 K, m1 = 0.02 | 995.051 | 1520.9 | 0.7243
308.15 K, m1 = 0.04 | 996.088 | 1522.2 | 0.7275
308.15 K, m1 = 0.06 | 997.129 | 1523.6 | 0.7302
308.15 K, m1 = 0.08 | 998.171 | 1525 | 0.7329
308.15 K, m1 = 0.1 | 999.218 | 1526.5 | 0.7352
308.15 K, m1 = 0.12 | 1000.26 | 1528.1 | 0.7379
308.15 K, m1 = 0.14 | 1001.31 | 1529.8 | 0.7405
308.15 K, m1 = 0.16 | 1002.36 | 1531.4 | 0.7425
308.15 K, m1 = 0.18 | 1003.41 | 1533.1 | 0.7448
308.15 K, m1 = 0.2 | 1004.48 | 1534.8 | 0.7469
313.15 K, m1 = 0.02 | 993.226 | 1530 | 0.6569
313.15 K, m1 = 0.04 | 994.257 | 1531.3 | 0.6595
313.15 K, m1 = 0.06 | 995.294 | 1532.6 | 0.6621
313.15 K, m1 = 0.08 | 996.332 | 1534 | 0.6638
313.15 K, m1 = 0.1 | 997.372 | 1535.5 | 0.666
313.15 K, m1 = 0.12 | 998.413 | 1537.1 | 0.6682
313.15 K, m1 = 0.14 | 999.457 | 1538.6 | 0.6702
313.15 K, m1 = 0.16 | 1000.5 | 1540.3 | 0.6716
313.15 K, m1 = 0.18 | 1001.56 | 1542 | 0.674
313.15 K, m1 = 0.2 | 1002.6 | 1543.7 | 0.6759
